Earlier results on two compounds are cited in patent US5041644A, “Peptide derivatives of β-chloro-L(Z)-dehydro-glutamic acid” (Merck & Co., Inc., priority 1987, dated 1991).

The test system of one data set is Micrococcus luteus. The note with it: very narrow antibacterial spectrum; activity practically limited only to Micrococcus luteus.
Data set [1] has as its system D-Alanyl-D-Alanine ligase (synthetase). Particulars: at both the donor and acceptor sites; most potent ligase inhibitor described heretofore.

As to `N[C@@H](C(=O)O)/C(Cl)=C/C(=O)O` [β-chloro-L-(Z)-dehydroglutamic acid], in the data set with Micrococcus luteus, the antibacterial activity entry is given as “shows an antibacterial activity”.

Consider `N[C@@H]1CONC1=O` [D-Cycloserine], for which the “inhibition of the ligase” value in data set [1] is given as “reversible inhibitor”.
